Results taken from the NIST ThermoML archive (doi:10.1016/j.jct.2011.09.008).
Numbers after ± are expanded uncertainties.

Key:
[1] = 101 kPa, Liquid, Sing-around technique in a fixed-path interferometer
[2] = xn = mol fraction of the nth substance listed; conditions: 283.15 K; 101 kPa; Liquid; Sing-around technique in a fixed-path interferometer; x2 = 0

Row | Compound | speed of sound ([1]; 283.15 K) | speed of sound ([1]; 288.15 K) | speed of sound ([1]; 293.15 K) | speed of sound ([1]; 298.15 K) | speed of sound ([1]; 303.15 K) | speed of sound [2]
1 | CCCOCC(C)O (stereo unspecified) [1-propoxy-2-propanol] | 1301.9 ± 1.5 m/s | 1283.2 ± 1.5 m/s | 1264.5 ± 1.5 m/s | 1245.8 ± 1.5 m/s | 1227.3 ± 1.5 m/s | –
2 | O [water] + CCCOCC(C)O | – | – | – | – | – | 1447.3 ± 1.2 m/s
